This note sets out measurements from US12668599B2, “Heterobifunctional compounds and methods of treating disease” (Halda Therapeutics OpCo, Inc., priority 2023, dated 2026).

Like-named read-outs stand apart in the source and are kept apart here.

Data set [1] has as its system T-Rex 293 cell line SC3 cells having increased expression of androgen receptor protein due to exposure to doxycycline. The data set is described as follows: Cellular growth inhibition, T-Rex 293 SC3 cells with doxycycline-induced androgen receptor (CellTiter-Glo 2.0, 72 hours). The conditions noted are these: for Ratio of GI50's: GI50 of the top compound in the pair divided by GI50 of the lower compound, T-Rex 293 SC3 cells with doxycycline-induced androgen receptor; for GI50: T-Rex 293 SC3 cells with 10 ng/ml doxycycline (increased androgen receptor expression), 72 hours, CellTiter-Glo 2.0. In kind it is cell-based. Background: In ATP-based viability assays light output follows the ATP content of the culture.

In data set [2] the target is T1, androgen receptor and BRD4 protein (Homo sapiens, UniProt O60885+P10275).
T1 construct: Tumors obtained from the Castrate VCaP Model were lysed; from tissue; host or cells: VCaP tumour xenografts grown in castrated CB17.SCID mice
The data set is described as follows: Tumor TR-FRET trimer assay on tumors of the PK/PD Castrate VCaP model. The data set is classed as in vivo, CB17.SCID mice. The following applies: PK/PD Castrate VCaP Tumor Xenograft Model; Compound II-5 and Compound B at the same dose and dosing frequency, FIG. 20. On the procedure:
5M VCaP cells were subcutaneously implanted into CB17.SCID mice in 50% Matrigel (Corning). Mice were castrated under anesthesia once tumor volumes reached 100 mm^3. Tumors were then allowed to reach an average of approximately 150 mm^3 before randomization into efficacy arms. Tumors were measured twice weekly for Tumor Growth Inhibition (TGI) calculation. For PK/PD analysis, tumors were allowed to reach an average of 400 mm^3, before dosing the mice with test compound by oral gavage (n=5) for seven days. Mice were sacrificed 24 hours following the final dose, and tumors were harvested for downstream analysis. Plasma samples were collected from all dosed mice 2 hours following the final dose to determine test compound exposure by LC-MS/MS. […] the United States Food and Drug Administration for treatment of prostate cancer ([…]).
Tumors obtained from the Castrate VCaP Model were lysed in Cell Signaling Technology lysis buffer supplemented with protease/phosphatase inhibitors and nuclease. Each tumor was lysed in 10 μL of lysis buffer per mg of tumor and placed in a TissueLyser for 4 minutes at 20 Hz. Each sample was spun down at 16000×g for 10 minutes, the supernatant was removed, and a BCA assay was run to quantify the total protein concentration in each sample. In a white opaque 384 well plate each sample was diluted in supplemented CST lysis buffer to 48 and 24 μg of protein in a total volume of 16 μL. 4 μL of a 1:1 mixture of anti-androgen receptor and anti-BRD4 antibodies with donor and acceptor fluorophores were mixed into each well containing tumor samples. The plate was spun down at 300×g for one minute, placed on a plate shaker at 400 RPM for 10 minutes, spun down at 300×g for one minute, then sealed with a plate seal and stored overnight. Approximately 16 hours after adding antibodies, the plate was read on an Envision plate reader. The ratiometric value of each well was calculated by dividing the acceptor signal by the donor signal and multiplying by 10,000.
Background: In TR-FRET formats the signal depends on donor and acceptor labels being close together.

Another data set has as its system VCaP cells. The data set is described as follows: Cellular growth inhibition assay for VCaP cells (CellTiter-Glo 2.0, 72 hours). In kind it is cell-based, human. The conditions noted are these: for Ratio of GI50's: GI50 of the top compound in the pair divided by GI50 of the lower compound; for GI50: CellTiter-Glo 2.0.
Data set [3] is described as follows: Stability to storage of crystal form under relative humidity. The data set is classed as physicochemical. The following applies: 23-25° C., 23% RH to 53% RH, one week.
Data set [4] can be described thus: Stability analysis of Crystal Form A and Crystal Form B in solvent suspensions (XRPD). The conditions noted are these: suspensions in EtOH, Acetone, Acetonitrile, THF/Heptane at 25° C. and 50° C. for 1 week. The data set is classed as physicochemical. As to the method: The obtained suspensions were stirred at 25° C. and 50° C. for 1 week, respectively. Solid parts (wet cakes) were isolated by centrifugation filtration at […] temperature and investigated by XRPD.

For data set [5], the system named is T-Rex 293 cell line SC3 cells lacking increased expression of androgen receptor protein. As to the kind of experiment: Cellular growth inhibition, T-Rex 293 SC3 cells without doxycycline (CellTiter-Glo 2.0, 72 hours). In kind it is cell-based. The conditions noted are these: T-Rex 293 SC3 cells not exposed to doxycycline (no increased androgen receptor expression).

The next data set deals with T47D cells. As to the kind of experiment: Cellular growth inhibition assay for T47D cells (CellTiter-Glo 2.0, 72 hours). The data set is classed as cell-based, human. As to the method:
Exemplary compounds were tested for ability to inhibit the proliferation of T47D cells. T47D cells are a commercially available human breast cancer cell line.
T47D cells were purchased from American Type Cell Culture (ATCC Cat #HTB-133) and then seeded on poly-D-lysine coated, black clear-bottom 384-well plates at 3000/well in 25 μL Dulbecco's Modified Eagle Medium (DMEM) supplemented with 10% w/w Fetal bovine serum (FBS), 0.2 units/mL recombinant human insulin (Gibco Cat #12585014), and 1% w/w Pen-Strep. Pen-Strep is a commercially available mixture of penicillin G and streptomycin, which is used in mammalian cell culture media to prevent bacterial contamination. Dulbecco's Modified Eagle Medium (DMEM) supplemented with 10% w/w fetal bovine serum (FBS), 0.2 units/mL recombinant human insulin, and 1% w/w Pen-Strep is herein referred to as Treatment Medium. Following seeding of cells in the plates, the plates were spun at 300×g for 30 seconds, then equilibrated to room temperature for 30 minutes, and then deposited in a humidified tissue culture incubator maintained at 37° C. with 5% CO2.
At 24 hours after seeding of the cells, dilutions of test compound were prepared in DMSO and dissolved in Treatment Medium, to achieve a final DMSO concentration of 0.5% w/w, thereby providing the Test Compound Solution. A 25 μL aliquot of the Test Compound Solution was added to cells in the well plates. An equal volume of a solution containing DMSO and Treatment Medium was used as a negative control. Following treatment of cells with Test Compound Solution or said equal volume of a solution containing DMSO and Treatment Medium, the plates were spun at 300×g for 30 seconds, and then left in an incubator for 72 hours.
At the end of the treatment duration, cell viability was quantified with CellTiter-Glo 2.0 reagent (Promega Cat #G9243). For this purpose, plates were equilibrated to room temperature for 30 minutes, and then 25 μL of CellTiter-Glo 2.0 reagent was added to cells in the plate wells. Plates were then agitated on a shaker for two minutes at 500 rpm and subsequently incubated at room temperature for 10 minutes. Following incubation, the plates were spun at 3000×g for 30 seconds, then sealed with an optical adhesive cover, and luminescence readings were measured with an En Vision Plate Reader (Perkin Elmer).
Data was normalized using zero luminescence for baseline. A four-parameter non-linear regression curve fit was applied to dose-response data in GraphPad Prism data analysis software to determine the half-maximal growth inhibitory concentration (GI50) for each test compound.

T1 sequence (P10275 whole entry, other chains not shown): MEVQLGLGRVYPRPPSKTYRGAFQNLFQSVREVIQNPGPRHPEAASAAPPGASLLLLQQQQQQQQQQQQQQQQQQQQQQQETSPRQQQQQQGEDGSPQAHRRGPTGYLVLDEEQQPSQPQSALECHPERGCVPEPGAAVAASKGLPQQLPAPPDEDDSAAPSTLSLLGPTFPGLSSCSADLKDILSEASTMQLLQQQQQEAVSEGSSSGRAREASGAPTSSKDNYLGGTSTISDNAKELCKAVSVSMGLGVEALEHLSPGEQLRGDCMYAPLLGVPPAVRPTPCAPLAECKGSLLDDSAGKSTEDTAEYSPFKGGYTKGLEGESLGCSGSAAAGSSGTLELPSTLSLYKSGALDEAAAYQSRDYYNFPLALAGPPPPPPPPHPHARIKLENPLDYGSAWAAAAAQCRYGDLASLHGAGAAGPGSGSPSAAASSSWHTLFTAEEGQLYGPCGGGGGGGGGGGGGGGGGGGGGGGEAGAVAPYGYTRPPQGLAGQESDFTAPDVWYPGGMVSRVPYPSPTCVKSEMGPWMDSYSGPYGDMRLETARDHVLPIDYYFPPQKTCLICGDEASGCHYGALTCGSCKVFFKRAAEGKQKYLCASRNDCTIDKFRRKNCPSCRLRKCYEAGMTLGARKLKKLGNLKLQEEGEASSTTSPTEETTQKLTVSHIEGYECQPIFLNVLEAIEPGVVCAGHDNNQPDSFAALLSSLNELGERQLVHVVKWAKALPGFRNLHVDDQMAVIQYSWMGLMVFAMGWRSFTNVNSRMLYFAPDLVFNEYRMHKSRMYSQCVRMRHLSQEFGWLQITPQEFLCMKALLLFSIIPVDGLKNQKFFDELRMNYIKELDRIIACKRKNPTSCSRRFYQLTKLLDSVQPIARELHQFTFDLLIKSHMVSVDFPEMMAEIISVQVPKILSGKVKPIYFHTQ

With `Cc1sc2c(c1C)C(c1ccc(OC3CC4(CCN(c5ncc(C(=O)N[C@H]6C(C)(C)[C@H](Oc7ccc(C#N)c(Cl)c7)C6(C)C)cn5)CC4)C3)cc1)=N[C@@H](Cc1ncco1)c1nnc(C)n1-2` [B, reference compound], the entries for the “Ratio of GI50's” value (in data set [1]; in the data set on VCaP cells) were 5.3 and 1.3, respectively. Besides, in data set [2], the “ternary complex formation between compound, androgen receptor, and BRD4 protein in tumors” value is given as “observed”.
Consider `COc1cc(O[C@H]2C(C)(C)[C@H](NC(=O)c3cnc(N4CCC5(CC4)CC(Oc4ccc(C6=N[C@@H](Cc7ncco7)c7nnc(C)n7-c7sc(C)c(C)c76)cc4)C5)nc3)C2(C)C)ccc1C#N` [Compound II-5 in Crystal Form A, N-[(1r,3r)-3-(4-cyano-3-methoxy-phenoxy)-2,2,4,4-tetramethyl-cyclobutyl]-2-[2-[4-[(9S)-4,5,13-trimethyl-9-(oxazol-2-ylmethyl)-3-thia-1,8,11,12-tetrazatricyclo[8.3.0.0^2,6]trideca-2 (6),4,7,10,12-pentaen-7-yl]phenoxy]-7-azaspiro[3.5]nonan-7-yl]pyrimidine-5-carboxamide Crystal Form A], for which the “physical stability of crystalline form on storage” value in data set [3] was “no change in crystalline form was observed”. Also, the “relative stability of crystal forms” value in data set [4] was “superior stability”.
Regarding `COc1cc(O[C@H]2C(C)(C)[C@H](NC(=O)c3cnc(N4CCC5(CC4)CC(Oc4ccc(C6=N[C@@H](Cc7ncco7)c7nnc(C)n7-c7sc(C)c(C)c76)cc4)C5)nc3)C2(C)C)ccc1C#N` [Compound II-5 in Crystal Form B, N-[(1r,3r)-3-(4-cyano-3-methoxy-phenoxy)-2,2,4,4-tetramethyl-cyclobutyl]-2-[2-[4-[(9S)-4,5,13-trimethyl-9-(oxazol-2-ylmethyl)-3-thia-1,8,11,12-tetrazatricyclo[8.3.0.0^2,6]trideca-2 (6),4,7,10,12-pentaen-7-yl]phenoxy]-7-azaspiro[3.5]nonan-7-yl]pyrimidine-5-carboxamide Crystal Form B], the “relative stability of crystal forms” value in data set [4] was “converted to Compound II-5 in Crystal Form A”.
Consider `COc1cc(O[C@H]2C(C)(C)[C@H](NC(=O)c3cnc(N4CCC5(CCC(c6ccc(C7=N[C@@H](Cc8ncco8)c8nnc(C)n8-c8sc(C)c(C)c87)cc6)CC5)C4)nc3)C2(C)C)ccc1C#N` [II-11, N-[(1r,3r)-3-(4-cyano-3-methoxy-phenoxy)-2,2,4,4-tetramethyl-cyclobutyl]-2-[8-[4-[(9S)-4,5,13-trimethyl-9-(oxazol-2-ylmethyl)-3-thia-1,8,11,12-tetrazatricyclo[8.3.0.0^2,6]trideca-2 (6),4,7,10,12-pentaen-7-yl]phenyl]-2-azaspiro[4.5]decan-2-yl]pyrimidine-5-carboxamide], for which the GI50 (as a rule, the concentration giving 50% growth inhibition) in data set [1] was less than 500 nM; in data set [5] (72 h), less than 500 nM; in the data set with T47D cells (Homo sapiens, T47D, 72 h), less than 500 nM; in the data set with VCaP cells (Homo sapiens, VCaP, 72 h) it was less than 500 nM.
As for `COc1cc(O[C@H]2C(C)(C)[C@H](NC(=O)c3cnc(N4CCC5(CCC(c6ccc(C7=N[C@@H](Cc8ncco8)c8nnc(C)n8-c8sc(C)c(C)c87)cc6)CC5)C4)nc3)C2(C)C)ccc1C#N` [II-12], the “Ratio of GI50's” value (in data set [1]; with VCaP cells) was 1 throughout. For the same compound, the GI50 (in data set [1]; in data set [5]; with T47D cells; in the data set with VCaP cells (72 hours)) was less than 500 nM throughout.
